The target of one assay is T1, Caspase-3 (Homo sapiens, UniProt P42574).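 Also: Dose-response selectivity test against caspase-3 for candidate inhibitors of sentrin-specific proteases (SENPs).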
T1 sequence (P42574 whole entry): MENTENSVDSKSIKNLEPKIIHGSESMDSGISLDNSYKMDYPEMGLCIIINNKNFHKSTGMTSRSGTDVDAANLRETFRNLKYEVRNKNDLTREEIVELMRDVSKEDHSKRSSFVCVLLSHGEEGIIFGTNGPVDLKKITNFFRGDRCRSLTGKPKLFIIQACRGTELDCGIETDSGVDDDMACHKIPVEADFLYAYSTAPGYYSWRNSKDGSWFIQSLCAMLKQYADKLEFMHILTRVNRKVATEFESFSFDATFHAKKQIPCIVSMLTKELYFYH
It is filed as functional.

In assay [1] the target is T2, Sentrin-specific protease 7 (Homo sapiens, UniProt Q9BQF6).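 Also: Luminescence-based dose-response confirmation of ultra-high-throughput screening hits, measuring inhibition of SENP7.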
T2 sequence (Q9BQF6 whole entry): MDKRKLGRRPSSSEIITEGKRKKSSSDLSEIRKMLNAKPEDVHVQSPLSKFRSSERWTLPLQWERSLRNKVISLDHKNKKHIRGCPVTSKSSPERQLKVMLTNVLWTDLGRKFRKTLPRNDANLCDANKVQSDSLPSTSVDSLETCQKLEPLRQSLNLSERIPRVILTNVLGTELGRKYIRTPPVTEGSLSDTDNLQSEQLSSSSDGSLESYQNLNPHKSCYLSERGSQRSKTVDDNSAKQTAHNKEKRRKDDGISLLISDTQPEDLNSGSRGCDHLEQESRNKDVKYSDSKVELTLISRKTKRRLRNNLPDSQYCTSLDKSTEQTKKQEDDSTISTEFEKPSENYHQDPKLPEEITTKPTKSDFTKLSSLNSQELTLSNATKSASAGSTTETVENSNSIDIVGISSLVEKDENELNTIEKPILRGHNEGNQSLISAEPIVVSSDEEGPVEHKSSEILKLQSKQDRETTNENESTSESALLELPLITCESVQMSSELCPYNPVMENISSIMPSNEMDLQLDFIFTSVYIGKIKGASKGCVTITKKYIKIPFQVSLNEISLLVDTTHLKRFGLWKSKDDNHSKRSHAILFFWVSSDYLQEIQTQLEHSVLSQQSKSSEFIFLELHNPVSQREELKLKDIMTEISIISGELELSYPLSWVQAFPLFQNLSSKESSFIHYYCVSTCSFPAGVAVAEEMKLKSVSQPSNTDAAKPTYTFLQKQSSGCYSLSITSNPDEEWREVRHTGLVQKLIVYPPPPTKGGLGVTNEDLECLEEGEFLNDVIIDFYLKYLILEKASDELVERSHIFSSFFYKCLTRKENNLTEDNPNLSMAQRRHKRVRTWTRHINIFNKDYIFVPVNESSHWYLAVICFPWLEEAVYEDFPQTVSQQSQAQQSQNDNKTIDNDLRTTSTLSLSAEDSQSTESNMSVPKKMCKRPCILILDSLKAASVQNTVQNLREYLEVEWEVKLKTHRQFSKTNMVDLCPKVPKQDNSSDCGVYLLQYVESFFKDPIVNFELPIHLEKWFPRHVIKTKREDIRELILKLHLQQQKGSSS
The assay is classed as functional.

Assay [2] concerns the target T3, Sentrin-specific protease 6 (Homo sapiens, UniProt Q9GZR1).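 Also: Luminescence-based dose-response confirmatory assay of SENP6 inhibition, following up an ultra-high-throughput screen.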
T3 sequence (Q9GZR1 whole entry): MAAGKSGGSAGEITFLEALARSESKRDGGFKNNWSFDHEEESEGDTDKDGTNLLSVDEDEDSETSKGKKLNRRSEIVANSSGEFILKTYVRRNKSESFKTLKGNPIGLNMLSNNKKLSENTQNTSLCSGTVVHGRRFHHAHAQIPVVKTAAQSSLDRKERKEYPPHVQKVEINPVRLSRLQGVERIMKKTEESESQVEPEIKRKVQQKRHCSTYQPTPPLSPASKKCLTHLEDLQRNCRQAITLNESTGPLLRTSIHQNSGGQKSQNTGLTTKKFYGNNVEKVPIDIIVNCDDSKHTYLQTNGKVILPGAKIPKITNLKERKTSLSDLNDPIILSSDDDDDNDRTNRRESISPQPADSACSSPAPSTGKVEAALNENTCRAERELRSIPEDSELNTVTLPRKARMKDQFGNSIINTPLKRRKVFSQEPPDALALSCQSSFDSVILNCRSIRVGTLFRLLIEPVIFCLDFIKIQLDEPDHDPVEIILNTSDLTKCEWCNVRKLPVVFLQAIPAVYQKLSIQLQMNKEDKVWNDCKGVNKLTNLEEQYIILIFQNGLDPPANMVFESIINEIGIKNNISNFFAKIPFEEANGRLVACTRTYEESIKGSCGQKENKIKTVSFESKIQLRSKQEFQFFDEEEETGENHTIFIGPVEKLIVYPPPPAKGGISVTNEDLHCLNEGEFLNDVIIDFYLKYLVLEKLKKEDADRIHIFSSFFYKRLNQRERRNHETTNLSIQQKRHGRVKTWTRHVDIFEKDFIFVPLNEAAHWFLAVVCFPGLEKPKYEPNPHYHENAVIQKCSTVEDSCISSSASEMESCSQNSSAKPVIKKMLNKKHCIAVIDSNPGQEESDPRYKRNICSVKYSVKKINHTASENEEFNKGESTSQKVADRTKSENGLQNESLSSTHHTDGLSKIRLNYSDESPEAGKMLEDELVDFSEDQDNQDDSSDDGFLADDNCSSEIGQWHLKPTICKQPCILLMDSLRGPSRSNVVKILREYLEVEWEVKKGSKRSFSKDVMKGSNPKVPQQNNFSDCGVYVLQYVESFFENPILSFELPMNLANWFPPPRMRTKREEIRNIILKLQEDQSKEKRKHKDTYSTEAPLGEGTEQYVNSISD
It is filed as functional.

The target in assay [3] is T4, Sentrin-specific protease 8 (Homo sapiens, UniProt Q96LD8).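 Also: luminescence read-out of SENP8 inhibition, dose-response confirmation following an ultra-high-throughput screen.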
T4 sequence (Q96LD8 whole entry): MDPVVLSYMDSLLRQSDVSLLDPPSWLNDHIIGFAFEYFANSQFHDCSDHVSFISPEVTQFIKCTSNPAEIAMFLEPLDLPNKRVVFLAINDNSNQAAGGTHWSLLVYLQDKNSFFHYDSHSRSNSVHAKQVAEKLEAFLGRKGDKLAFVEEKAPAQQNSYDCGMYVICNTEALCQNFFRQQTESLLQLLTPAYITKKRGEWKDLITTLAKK
It is filed as functional.

A short description of assay [4]: Luminescence-based cell-based high throughput dose response assay to identify activators of the DAF-12 from the parasite S. stercoralis (ssDAF-12). It is filed as functional.
In assay [5] the target is T5, Oxysterols receptor LXR-beta (Homo sapiens, UniProt P55055).
T5 sequence (P55055 whole entry): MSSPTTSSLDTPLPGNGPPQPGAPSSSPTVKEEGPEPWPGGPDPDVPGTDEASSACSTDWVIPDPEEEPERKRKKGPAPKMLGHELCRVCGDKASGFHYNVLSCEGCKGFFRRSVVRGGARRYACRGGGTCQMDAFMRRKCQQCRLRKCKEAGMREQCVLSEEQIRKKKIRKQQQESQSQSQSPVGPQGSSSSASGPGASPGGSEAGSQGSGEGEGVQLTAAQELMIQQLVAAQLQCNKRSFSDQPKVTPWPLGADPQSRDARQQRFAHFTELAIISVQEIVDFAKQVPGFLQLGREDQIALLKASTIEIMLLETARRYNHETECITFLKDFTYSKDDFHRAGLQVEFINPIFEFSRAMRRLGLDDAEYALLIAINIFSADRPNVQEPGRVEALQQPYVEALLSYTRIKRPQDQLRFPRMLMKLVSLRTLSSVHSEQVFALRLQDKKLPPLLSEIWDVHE
The assay is described as follows: LXR agonists, Gal4 luciferase reporter, dose response, counter-screen for ssDAF-12 agonist project, cell-based, luminescence, HEK293, S. stercoralis campaign (AID 720737). It is filed as functional. To be noted: read-out: IC50 (the source's name).

Assay [6] concerns the target T5, Oxysterols receptor LXR-beta. The assay is classed as functional, cell-based.
In assay [7] the target is T6, Heat shock factor protein 1 (Mus musculus, UniProt P38532).
T6 sequence (P38532 whole entry): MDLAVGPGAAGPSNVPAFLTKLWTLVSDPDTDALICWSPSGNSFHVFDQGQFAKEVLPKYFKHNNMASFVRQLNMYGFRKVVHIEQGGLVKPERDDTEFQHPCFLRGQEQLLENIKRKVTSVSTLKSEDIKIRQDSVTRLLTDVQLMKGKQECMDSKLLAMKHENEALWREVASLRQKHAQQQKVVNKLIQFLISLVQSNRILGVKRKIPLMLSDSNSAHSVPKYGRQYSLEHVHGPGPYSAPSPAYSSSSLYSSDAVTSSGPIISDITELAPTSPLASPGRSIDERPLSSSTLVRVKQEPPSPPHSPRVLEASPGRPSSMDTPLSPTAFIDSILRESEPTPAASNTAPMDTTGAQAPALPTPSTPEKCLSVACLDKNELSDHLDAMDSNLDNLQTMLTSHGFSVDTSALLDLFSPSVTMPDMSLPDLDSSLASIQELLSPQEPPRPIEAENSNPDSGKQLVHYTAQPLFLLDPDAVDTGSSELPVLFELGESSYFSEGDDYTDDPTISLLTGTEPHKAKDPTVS
The assay is described as follows: enhancement of HSF1-driven luciferase signal – cell-based, NIH3T3, luminescence, dose retest, confirmation (AID 435004).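 Also: stress induced by proteasome inhibitor MG132 added 30 min after compound; luciferase reporter driven by HSF1 response element in NIH3T3 cells; actives raise luminescence as potentiators of the MG132 stress response.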 It is filed as functional.

Assay [8] deals with T7, Replicative DNA helicase DnaB (Mycobacterium tuberculosis, UniProt P9WMR3).
T7 sequence (P9WMR3 whole entry): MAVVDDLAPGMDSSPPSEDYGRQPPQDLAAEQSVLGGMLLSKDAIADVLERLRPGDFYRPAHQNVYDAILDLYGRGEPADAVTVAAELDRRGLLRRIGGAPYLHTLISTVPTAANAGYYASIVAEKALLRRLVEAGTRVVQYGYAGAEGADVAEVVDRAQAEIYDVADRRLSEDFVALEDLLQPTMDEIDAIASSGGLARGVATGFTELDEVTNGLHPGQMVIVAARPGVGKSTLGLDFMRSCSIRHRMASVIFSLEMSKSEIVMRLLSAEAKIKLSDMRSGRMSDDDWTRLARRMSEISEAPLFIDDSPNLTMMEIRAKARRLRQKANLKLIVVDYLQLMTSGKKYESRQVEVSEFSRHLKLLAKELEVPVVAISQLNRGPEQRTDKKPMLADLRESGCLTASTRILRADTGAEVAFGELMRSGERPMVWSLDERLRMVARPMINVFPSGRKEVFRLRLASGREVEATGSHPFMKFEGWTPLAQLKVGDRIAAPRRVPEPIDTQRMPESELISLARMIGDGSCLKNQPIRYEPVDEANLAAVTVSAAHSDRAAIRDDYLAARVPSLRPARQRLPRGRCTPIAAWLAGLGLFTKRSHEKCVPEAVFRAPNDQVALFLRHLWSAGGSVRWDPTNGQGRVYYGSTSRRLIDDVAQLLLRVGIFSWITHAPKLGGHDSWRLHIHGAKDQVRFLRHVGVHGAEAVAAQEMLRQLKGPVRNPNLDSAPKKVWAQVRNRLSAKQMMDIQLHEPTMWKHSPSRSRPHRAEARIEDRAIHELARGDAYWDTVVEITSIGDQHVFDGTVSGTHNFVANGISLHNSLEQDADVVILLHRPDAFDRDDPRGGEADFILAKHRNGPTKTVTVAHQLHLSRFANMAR
The assay is described as follows: DnaB intein splicing inhibitors, dose response, biochemical, cell-free fluorescence (AID 449749). It is filed as functional.

The target of a further assay is T8, Protein RecA (Mycobacterium tuberculosis, UniProt P9WHJ3).
T8 sequence (P9WHJ3 whole entry): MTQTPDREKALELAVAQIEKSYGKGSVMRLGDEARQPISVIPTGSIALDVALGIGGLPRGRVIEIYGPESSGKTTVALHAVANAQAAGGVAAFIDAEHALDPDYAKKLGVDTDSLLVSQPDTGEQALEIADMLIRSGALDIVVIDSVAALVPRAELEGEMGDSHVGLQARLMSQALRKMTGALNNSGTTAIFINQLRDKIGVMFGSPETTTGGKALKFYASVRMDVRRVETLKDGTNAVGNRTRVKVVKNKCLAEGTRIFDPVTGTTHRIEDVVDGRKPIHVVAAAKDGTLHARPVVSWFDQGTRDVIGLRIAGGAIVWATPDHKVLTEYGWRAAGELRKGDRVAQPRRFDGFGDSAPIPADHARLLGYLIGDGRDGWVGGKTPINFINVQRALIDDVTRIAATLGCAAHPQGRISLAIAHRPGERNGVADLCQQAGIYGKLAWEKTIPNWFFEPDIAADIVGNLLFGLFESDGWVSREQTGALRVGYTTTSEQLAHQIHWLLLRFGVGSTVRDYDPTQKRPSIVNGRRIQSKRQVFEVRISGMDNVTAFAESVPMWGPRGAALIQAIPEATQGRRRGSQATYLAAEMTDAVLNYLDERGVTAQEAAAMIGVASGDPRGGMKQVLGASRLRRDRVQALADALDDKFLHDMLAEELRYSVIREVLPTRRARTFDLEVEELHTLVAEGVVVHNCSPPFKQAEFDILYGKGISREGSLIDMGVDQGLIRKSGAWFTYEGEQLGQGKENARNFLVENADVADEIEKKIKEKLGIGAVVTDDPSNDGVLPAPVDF
As to the kind of experiment: Fluorescence Cell-Free Homogeneous Dose Retest to Identify Inhibitors of RecA-Intein Splicing Activity. [Related pubchem assays (depositor defined):AID2097, AID2223, AID489010, AID492950]. The assay is classed as functional.

Assay [9] is described as follows: reduced cellular PGC1a acetyl-lysine signal – cell-based, cherry-picked samples, dose response (AID 720514).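 Also: potency may reflect raised or lowered acetylation signal.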 The assay is classed as functional.

Activity calls are given as the source filed them.

As for `Cc1ccc(Nc2nc(-c3cccnc3)cs2)cc1C`, the IC50 at Caspase-3 was 34.4 µM (active); in assay [1], 5.02 µM (active); in [2], 7.01 µM (active); in [3], 7.16 µM (active); in assay [4] it was > 67.6 µM (inactive). Also, the EC50 (in [5]; in assay [6]; in “cells”) was > 67.6 µM (inactive) each time.

Consider `O=S(=O)(c1ccccc1)c1ncc(C(F)(F)F)cc1Cl`, for which the EC50 in [7] is 15.9 µM (active); at Protein RecA, 3.16 µM (active). Also, the results for the AC50 in [8] and in assay [9] were 18.4 µM (active) and 11 µM (active), respectively.

The record behind these values is ChEMBL document CHEMBL1201862, “PubChem BioAssay data set” (2004).
